The nature of data set [1]: Oral bioavailability in Beagle dog at 2 mg/kg. In kind it is ADME, organism-based, Canis lupus familiaris. To be noted: in vivo.
A short description of data set [2]: Clearance in Beagle Dog at 1 micromol/kg, iv. The format is ADME, Canis lupus familiaris. To be noted: in vivo, dose 1 µmol/kg.
Data set [3] addresses T1, Phosphatidylinositol 4,5-bisphosphate 3-kinase catalytic subunit gamma isoform (Homo sapiens, UniProt P48736). The data set can be described thus: Inhibition of human recombinant PI3Kgamma using phosphatidylinositol as substrate in presence of [gamma33P]ATP by scintillation proximity assay.
Target sequence in this assay (P48736 whole entry, looked up, canonical isoform): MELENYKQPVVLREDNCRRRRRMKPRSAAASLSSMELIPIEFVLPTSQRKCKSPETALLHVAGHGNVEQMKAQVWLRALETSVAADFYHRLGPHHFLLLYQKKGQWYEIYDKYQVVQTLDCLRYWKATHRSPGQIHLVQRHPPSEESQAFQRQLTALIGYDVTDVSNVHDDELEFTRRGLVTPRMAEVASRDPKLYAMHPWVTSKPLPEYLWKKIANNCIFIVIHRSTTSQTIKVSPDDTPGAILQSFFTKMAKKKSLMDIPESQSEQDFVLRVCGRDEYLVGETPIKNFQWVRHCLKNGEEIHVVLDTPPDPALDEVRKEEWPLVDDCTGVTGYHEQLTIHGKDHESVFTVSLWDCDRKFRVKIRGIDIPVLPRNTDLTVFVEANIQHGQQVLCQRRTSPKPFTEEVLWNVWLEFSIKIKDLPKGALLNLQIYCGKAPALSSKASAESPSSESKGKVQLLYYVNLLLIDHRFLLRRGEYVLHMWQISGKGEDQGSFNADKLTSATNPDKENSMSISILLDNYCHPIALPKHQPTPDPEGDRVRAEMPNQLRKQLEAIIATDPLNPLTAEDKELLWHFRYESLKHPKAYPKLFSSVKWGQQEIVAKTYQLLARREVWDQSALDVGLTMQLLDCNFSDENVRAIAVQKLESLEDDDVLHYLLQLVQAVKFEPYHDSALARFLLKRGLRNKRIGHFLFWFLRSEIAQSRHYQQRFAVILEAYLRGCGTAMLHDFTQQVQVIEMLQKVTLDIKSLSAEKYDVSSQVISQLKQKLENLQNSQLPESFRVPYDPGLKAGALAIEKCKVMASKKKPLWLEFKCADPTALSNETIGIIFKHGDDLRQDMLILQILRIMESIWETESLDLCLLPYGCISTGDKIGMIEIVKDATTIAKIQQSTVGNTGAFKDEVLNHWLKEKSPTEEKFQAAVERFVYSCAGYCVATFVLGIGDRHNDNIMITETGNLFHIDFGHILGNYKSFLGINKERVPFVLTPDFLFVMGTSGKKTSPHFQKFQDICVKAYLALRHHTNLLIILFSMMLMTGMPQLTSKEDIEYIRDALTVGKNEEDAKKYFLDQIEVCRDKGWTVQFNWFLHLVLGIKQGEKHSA
Data set [4] addresses T2, Phosphatidylinositol 4,5-bisphosphate 3-kinase catalytic subunit delta isoform (Homo sapiens, UniProt O00329).
T2 sequence (O00329 whole entry): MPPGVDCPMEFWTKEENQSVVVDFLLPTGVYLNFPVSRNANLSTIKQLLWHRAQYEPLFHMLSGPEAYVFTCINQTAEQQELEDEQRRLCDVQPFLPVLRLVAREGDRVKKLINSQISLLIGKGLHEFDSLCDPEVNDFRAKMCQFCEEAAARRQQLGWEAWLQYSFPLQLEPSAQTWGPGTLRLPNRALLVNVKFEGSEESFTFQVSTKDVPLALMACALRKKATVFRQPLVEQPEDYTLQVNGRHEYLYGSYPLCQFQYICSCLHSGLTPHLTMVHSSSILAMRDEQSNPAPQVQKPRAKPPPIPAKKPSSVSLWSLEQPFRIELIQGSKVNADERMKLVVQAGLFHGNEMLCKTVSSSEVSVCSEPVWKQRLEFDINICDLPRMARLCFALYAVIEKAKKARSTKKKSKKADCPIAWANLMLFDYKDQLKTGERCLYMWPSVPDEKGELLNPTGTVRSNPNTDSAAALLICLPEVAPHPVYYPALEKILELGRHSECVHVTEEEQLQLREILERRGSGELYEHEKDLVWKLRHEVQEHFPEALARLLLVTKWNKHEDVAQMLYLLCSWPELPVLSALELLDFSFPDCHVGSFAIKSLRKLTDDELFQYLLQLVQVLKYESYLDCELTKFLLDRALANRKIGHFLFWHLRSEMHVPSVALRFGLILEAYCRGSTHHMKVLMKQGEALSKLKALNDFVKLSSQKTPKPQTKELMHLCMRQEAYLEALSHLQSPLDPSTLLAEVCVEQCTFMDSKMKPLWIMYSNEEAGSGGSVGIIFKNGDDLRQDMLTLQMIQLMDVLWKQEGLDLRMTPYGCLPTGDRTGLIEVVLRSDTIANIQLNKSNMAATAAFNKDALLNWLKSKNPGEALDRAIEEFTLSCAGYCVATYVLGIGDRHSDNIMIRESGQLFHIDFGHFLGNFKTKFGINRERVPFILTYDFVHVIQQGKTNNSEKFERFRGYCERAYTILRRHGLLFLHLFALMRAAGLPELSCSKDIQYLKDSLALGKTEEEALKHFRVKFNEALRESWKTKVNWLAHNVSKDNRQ
In words: Inhibition of P13Kdelta (unknown origin) in the presence of ATP by scintillation proximity assay. A general note: In a scintillation proximity assay essentially only radioactivity close to the scintillant gives light.

Data set [5] deals with Phosphatidylinositol 4,5-bisphosphate 3-kinase catalytic subunit alpha isoform (Homo sapiens, UniProt P42336). In words: Inhibition of PI3Kalpha (unknown origin) using […] as substrate preincubated for 10 mins followed by substrate addition by microplate reader analysis.
A short description of data set [6]: Oral bioavailability in rat at 10 mg/kg. In kind it is ADME, organism-based. Conditions: in vivo.
Data set [7] in a line: Inhibition of P13Kalpha (unknown origin) in the presence of ATP by scintillation proximity assay.
Data set [8] has as its target T2, Phosphatidylinositol 4,5-bisphosphate 3-kinase catalytic subunit delta isoform. The data set can be described thus: Inhibition of human PI3Kdelta expressed in baculovirus infected Sf21 insect cells by ADP-Glo assay. For orientation: In ADP-Glo the light output rises with the ADP produced.
Data set [9] has as its target T1, Phosphatidylinositol 4,5-bisphosphate 3-kinase catalytic subunit gamma isoform. In words: Inhibition of human PI3Kgamma expressed in baculovirus infected Sf21 insect cells by ADP-Glo assay.
Target sequence in this assay (P48736 whole entry, canonical isoform): as the sequence (P48736 whole entry, looked up, canonical isoform) above
Data set [10] has the same target. In words: Inhibition of PI3Kgamma (unknown origin).
Target sequence in this assay (P48736 whole entry, canonical isoform): as the sequence (P48736 whole entry, looked up, canonical isoform) above
Data set [11] addresses T2, Phosphatidylinositol 4,5-bisphosphate 3-kinase catalytic subunit delta isoform. The data set can be described thus: Inhibition of PI3Kdelta (unknown origin).
Data set [12] deals with Phosphatidylinositol 4,5-bisphosphate 3-kinase catalytic subunit beta isoform (Homo sapiens, UniProt P42338). The data set can be described thus: Inhibition of PI3Kbeta (unknown origin).
A short description of data set [13]: Inhibition of P13Kalpha (unknown origin).

The structures appear in SMILES notation.

Sequence of Phosphatidylinositol 4,5-bisphosphate 3-kinase catalytic subunit alpha isoform (P42336 whole entry, canonical isoform): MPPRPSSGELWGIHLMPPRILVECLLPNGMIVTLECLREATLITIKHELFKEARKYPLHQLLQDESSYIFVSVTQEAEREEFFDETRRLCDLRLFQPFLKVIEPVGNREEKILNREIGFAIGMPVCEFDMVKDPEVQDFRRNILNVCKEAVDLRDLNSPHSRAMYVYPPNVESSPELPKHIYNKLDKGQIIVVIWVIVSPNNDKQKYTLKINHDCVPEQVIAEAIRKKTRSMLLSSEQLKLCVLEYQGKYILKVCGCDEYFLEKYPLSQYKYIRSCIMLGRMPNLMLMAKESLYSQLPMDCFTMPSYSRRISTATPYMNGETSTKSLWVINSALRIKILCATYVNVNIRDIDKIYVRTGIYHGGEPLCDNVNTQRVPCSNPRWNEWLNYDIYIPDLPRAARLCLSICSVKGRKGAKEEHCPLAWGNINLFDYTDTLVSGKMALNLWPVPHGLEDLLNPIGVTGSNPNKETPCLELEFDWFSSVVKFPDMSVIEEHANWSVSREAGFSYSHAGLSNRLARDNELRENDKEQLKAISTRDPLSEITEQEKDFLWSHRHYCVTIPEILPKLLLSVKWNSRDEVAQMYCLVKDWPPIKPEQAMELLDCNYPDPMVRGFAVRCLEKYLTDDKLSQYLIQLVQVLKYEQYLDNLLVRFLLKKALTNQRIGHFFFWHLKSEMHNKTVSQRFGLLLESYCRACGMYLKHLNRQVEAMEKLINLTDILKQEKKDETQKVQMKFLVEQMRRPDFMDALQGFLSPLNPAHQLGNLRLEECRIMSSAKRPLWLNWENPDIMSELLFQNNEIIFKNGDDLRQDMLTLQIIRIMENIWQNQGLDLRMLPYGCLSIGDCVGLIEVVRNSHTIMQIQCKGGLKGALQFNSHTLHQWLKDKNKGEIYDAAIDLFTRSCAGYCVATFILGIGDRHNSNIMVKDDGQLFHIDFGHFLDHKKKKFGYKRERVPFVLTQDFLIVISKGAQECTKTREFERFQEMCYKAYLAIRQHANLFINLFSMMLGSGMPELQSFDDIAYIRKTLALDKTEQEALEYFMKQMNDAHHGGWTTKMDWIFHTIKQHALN
Sequence of Phosphatidylinositol 4,5-bisphosphate 3-kinase catalytic subunit beta isoform (P42338 whole entry, canonical isoform): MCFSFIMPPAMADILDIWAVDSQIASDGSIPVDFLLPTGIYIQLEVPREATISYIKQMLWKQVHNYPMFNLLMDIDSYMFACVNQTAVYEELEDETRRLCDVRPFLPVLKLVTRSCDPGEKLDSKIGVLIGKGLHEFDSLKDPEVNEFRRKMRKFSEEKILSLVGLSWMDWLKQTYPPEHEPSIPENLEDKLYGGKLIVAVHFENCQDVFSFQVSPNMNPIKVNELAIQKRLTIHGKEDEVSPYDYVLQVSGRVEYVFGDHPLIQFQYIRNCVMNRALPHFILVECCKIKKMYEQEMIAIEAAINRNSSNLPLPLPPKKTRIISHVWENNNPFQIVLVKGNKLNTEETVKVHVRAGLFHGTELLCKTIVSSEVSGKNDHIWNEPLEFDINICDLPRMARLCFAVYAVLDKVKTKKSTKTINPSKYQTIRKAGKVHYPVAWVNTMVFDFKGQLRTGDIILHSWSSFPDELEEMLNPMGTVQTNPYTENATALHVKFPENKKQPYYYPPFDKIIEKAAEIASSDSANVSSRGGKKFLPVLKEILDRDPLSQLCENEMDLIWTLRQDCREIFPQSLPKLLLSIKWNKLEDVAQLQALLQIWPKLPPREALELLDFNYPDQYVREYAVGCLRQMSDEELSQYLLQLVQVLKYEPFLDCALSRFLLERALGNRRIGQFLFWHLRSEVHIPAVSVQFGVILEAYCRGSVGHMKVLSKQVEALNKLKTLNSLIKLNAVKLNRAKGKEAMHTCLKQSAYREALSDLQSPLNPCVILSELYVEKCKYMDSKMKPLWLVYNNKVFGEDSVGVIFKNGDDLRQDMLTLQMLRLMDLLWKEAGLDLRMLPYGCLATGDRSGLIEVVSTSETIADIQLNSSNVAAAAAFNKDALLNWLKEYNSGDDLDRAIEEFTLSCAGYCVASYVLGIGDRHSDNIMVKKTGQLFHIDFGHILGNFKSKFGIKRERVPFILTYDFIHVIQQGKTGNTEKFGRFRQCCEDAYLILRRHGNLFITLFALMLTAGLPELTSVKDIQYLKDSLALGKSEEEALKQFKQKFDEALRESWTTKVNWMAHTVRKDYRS

In general, bioavailability refers to dose-corrected exposure relative to a reference, in per cent. A high value points to much systemic uptake. The clearance is a measure of how efficiently the substance is removed, as volume per time. The low end stands for a low capacity for elimination, the high end for a high capacity for elimination. Molecule `CC(=O)Nc1nc(C)c(-c2cc3c(c(S(C)(=O)=O)c2)C(=O)N([C@@H](C)C2CC2)C3)s1` returned a bioavailability in data set [1] of 82%. Further, in data set [2], the clearance worked out at 3.3 mL/min/kg.

For orientation: IC50 means the concentration at which inhibition is half-maximal. On to `Cc1cc(C(O)(CO)C(F)F)ccc1-c1cnc(N)c(C(=O)N2CC[C@H](CO)C2)n1` (stereo partly specified), for which the IC50 was at most 100 nM in data set [3] and below 2000 nM in data set [4].

In the case of `CC1(CCn2nc(-c3ccc(Cl)c(O)c3)c3c(N)ncnc32)COC1`, inhibition in data set [5] was half-maximal at 172 nM (IC50).

For `Cc1ncc(-c2cc(-c3ccc(S(=O)(=O)NCC(C)(C)O)cc3C)cnc2N)o1`, the figures for the half-maximal inhibitory concentration (IC50) in data set [3] and in data set [7] were 40 nM and 300 nM, respectively. The bioavailability in data set [6] worked out at 72%.

As to `Cc1nnc(-c2cc(-c3cc4c(c(S(C)(=O)=O)c3)C(=O)N([C@@H](C)C3CC3)C4)ccn2)[nH]1`, in data set [4], the half-inhibitory concentration (IC50) was below 2000 nM.

`Cc1cc(S(=O)(=O)N[C@H]2CC[C@H](O)CC2)ccc1-c1cnc(N)c(C(=O)C2CC2)n1`: the IC50 in data set [3] is 24 nM; in data set [7], 110 nM. This molecule displayed a bioavailability in [6] of 23%.

In the case of `Cc1nc(N)c2ncc(-c3cc(C(C)(O)CC(F)(F)F)ccc3C)n2n1` (stereo unspecified), the IC50 in data set [4] is below 2000 nM.

On to `COc1cncc(-c2ccc3nc(-c4nc5c(C)cccc5[nH]4)oc3c2)c1`, for which the IC50 was at least 5000 nM in data set [8] and below 250 nM in data set [9].

`Clc1ccc(Cn2cc(-c3ccnc(-c4ncc(-c5ccccc5)[nH]4)c3)cn2)cc1`: the IC50 in data set [4] is above 500 nM.

Turning to `CC(NC(=O)c1c(N)nn2cccnc12)c1cc(Cl)c2c(C#N)ncn2c1N1CCS(=O)(=O)C(C)C1` (stereo unspecified), the results for the IC50 in data set [10] and in data set [11] were below 100 nM and below 2000 nM, respectively.

For `Cc1cc(S(=O)(=O)N[C@H]2CC[C@H](O)CC2)ccc1-c1cnc2c(N)c(Cl)ccn12`, the concentration for half-maximal inhibition (IC50) in [4] was at most 500 nM.

With `CC(=O)c1c(C)n(-c2ccc(C)cc2)c2ccc(OCC(O)CNCc3ccc(Cl)cc3)cc12` (stereo unspecified), the half-inhibitory concentration (IC50) in data set [12] and in data set [13] was above 20000 nM each time.
